The record followed here is US9765091B2, “Tetrahydropyrazolo [3,4-b] azepine derivatives and their use as allosteric modulators of metabotropic glutamate receptors” (Addex Pharma S.A., priority 2010, dated 2017).

T1 sequence (Q14833 33-912): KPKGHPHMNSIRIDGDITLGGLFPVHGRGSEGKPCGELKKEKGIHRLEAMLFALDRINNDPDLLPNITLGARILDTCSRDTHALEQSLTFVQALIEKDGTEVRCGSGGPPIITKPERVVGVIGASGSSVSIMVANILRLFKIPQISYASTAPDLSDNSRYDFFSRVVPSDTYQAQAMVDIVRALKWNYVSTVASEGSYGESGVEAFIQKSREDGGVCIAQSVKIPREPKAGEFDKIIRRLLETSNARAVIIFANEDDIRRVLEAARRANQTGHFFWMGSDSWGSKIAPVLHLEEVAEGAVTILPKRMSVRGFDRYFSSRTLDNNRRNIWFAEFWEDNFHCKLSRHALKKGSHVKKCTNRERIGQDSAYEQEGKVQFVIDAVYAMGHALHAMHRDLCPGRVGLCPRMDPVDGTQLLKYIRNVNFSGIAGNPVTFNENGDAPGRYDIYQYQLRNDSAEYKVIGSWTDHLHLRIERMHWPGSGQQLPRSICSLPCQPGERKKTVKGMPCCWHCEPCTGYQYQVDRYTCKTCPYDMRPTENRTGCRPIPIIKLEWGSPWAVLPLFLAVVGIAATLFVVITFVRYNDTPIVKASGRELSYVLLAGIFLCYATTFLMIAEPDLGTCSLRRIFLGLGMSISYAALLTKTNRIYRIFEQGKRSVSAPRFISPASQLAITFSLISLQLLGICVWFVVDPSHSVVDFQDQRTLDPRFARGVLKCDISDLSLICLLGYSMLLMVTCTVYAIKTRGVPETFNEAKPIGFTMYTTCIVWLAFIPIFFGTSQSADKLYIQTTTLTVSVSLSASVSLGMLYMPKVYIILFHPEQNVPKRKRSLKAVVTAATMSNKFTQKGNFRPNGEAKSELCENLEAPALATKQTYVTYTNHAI

The assay has as its target T1, human mGluR4 (Homo sapiens, UniProt Q14833).
T1 construct: expressed in transfected cells
Description: Fluorescent cell based Ca2+ mobilization assay (FLIPR) on HEK-293 cells expressing human mGluR4. The settings on record: positive allosteric modulation, HEK-293 cells expressing hmGluR4, stimulated by EC25 glutamate; mean of at least three independent experiments in duplicate; read-out: Ca^2+ Flux* (mean EC50). The text has this: mGluR4 Assay on HEK-Expressing Human mGluR4
The compounds of the present invention are positive allosteric modulators of mGluR4 receptor. Their activity was examined on recombinant human mGluR4a receptors by detecting changes in intracellular Ca^2+ concentration, using the fluorescent Ca^2+-sensitive dye Fluo4-(AM) and a Fluorometric Imaging Plate Reader (FLIPR, Molecular Devices, Sunnyvale, Calif.).
The cDNA encoding the human metabotropic glutamate receptor (hmGluR4), (accession number NM_000841.1, NCBI Nucleotide database browser), was subcloned into an expression vector containing also the hygromycin resistance gene. In parallel, the cDNA encoding a G protein allowing redirection of the activation signal to intracellular calcium flux was subcloned into a different expression vector containing also the puromycin resistance gene. Transfection of both these vectors into HEK293 cells with PolyFect reagent (Qiagen) according to supplier's protocol, and hygromycin and puromycin treatment allowed selection of antibiotic resistant cells which had integrated stably one or more copies of the plasmids. Positive cellular clones expressing hmGluR4 were identified in a functional assay measuring changes in calcium fluxes in response to glutamate or selective known mGluR4 orthosteric agonists and antagonists. HEK-293 cells expressing hmGluR4 were maintained in media containing DMEM, dialyzed Fetal Calf Serum (10%), Glutamax™ (2 mM), Penicillin (100 units/mL), Streptomycin (100 μg/mL), Geneticin (100 μg/mL) and Hygromycin-B (40 μg/mL) and puromycin (1 μg/mL) at 37° C./5% CO2.
Human mGluR4 HEK-293 cells were plated out 24 hours prior to FLIPR^384 assay in black-walled, clear-bottomed, poly-L-ornithine-coated 384-well plates at a density of 25,000 cells/well in a glutamine/glutamate free DMEM medium containing foetal bovine serum (10%), penicillin (100 units/mL) and streptomycin (100 μg/mL) at 37° C./5% CO2.
On the day of the assay, the medium was aspirated and the cells were loaded with a 3 μM solution of Fluo4-AM (LuBioScience, Lucerne, Switzerland) in 0.03% pluronic acid. After 1 hour at 37° C./5% CO2, the non incorporated dye was removed by washing cell plate with the assay buffer and the cells were left in the dark at room temperature for […] before testing. All assays were performed in a pH 7.4 buffered-solution containing 20 mM HEPES, 143 mM NaCl, 6 mM KCl, 1 mM MgSO4, 1 mM CaCl2, 0.125 mM sulfapyrazone and 0.1% glucose.
After 10 s of basal fluorescence recording, various concentrations of the compounds of the invention were added to the cells. Changes in fluorescence levels were first monitored for 180 s in order to detect any agonist activity of the compounds. Then the cells were stimulated by an EC25 glutamate concentration for an additional 110 s in order to measure enhancing activities of the compounds of the invention. EC25 glutamate concentration is the concentration giving 25% of the maximal glutamate response.
The concentration-response curves of representative compounds of the present invention were generated using the Prism GraphPad software (Graph Pad Inc, San Diego, USA). The curves were fitted to a four-parameter logistic equation: (Y=Bottom+(Top−Bottom)/(1+10^((Log EC50−X)*Hill Slope) allowing the determination of EC50 values.
The Table 4 below represents the mean EC50 obtained from at least three independent experiments of selected molecules performed in duplicate.
Regarding `CNCCN1CCc2sc(Nc3ncc(F)cn3)nc2-c2c[nH]nc21` [Compound 1-32, N-(5-Fluoropyrimidin-2-yl)-6-(2-(methylamino)ethyl)-4,5,6,8-tetrahydropyrazolo[3,4-b]thiazolo[4,5-d]azepin-2-amine], the EC50 is 1000 to 10000 nM.
The result for `Fc1cnc(Nc2nc3c(s2)CCN(Cc2ncccc2Cl)c2[nH]ncc2-3)nc1` [Compound 1-64, 6-((3-Chloropyridin-2-yl)methyl)-N-(5-fluoropyrimidin-2-yl)-4,5,6,7-tetrahydropyrazolo[3,4-b]thiazolo[4,5-d]azepin-2-amine] reads 100 to 1000 nM.
Then `COCCN1CCc2sc(Nc3cccc(CO)n3)nc2-c2c[nH]nc21` [Compound 1-53, (6-(6-(2-Methoxyethyl)-4,5,6,8-tetrahydropyrazolo[3,4-b]thiazolo[4,5-d]azepin-2-ylamino)pyridin-2-yl)methanol], with 1000 to 10000 nM.
The result for `Cc1ccccc1CN1CCc2sc(Nc3ncc(F)cn3)nc2-c2cn[nH]c21` [Compound 1-59, N-(5-Fluoropyrimidin-2-yl)-6-(2-methylbenzyl)-4,5,6,7-tetrahydropyrazolo[3,4-b]thiazolo[4,5-d]azepin-2-amine] reads 1000 to 10000 nM; that for `Fc1cnc(Nc2nc3c(s2)CCN(CC2CCCCC2)c2n[nH]cc2-3)nc1` [Compound 1-38, 6-(Cyclohexylmethyl)-N-(5-fluoropyrimidin-2-yl)-4,5,6,8-tetrahydropyrazolo[3,4-b]thiazolo[4,5-d]azepin-2-amine], less than 100 nM; that for `Cc1ccnc(Nc2nc3c(s2)CCN(Cc2ccn(C)n2)c2n[nH]cc2-3)n1` [Compound 1-16, 6-((1-Methyl-1H-pyrazol-3-yl)methyl)-N-(4-methylpyrimidin-2-yl)-4,5,6,8-tetrahydropyrazolo[3,4-b]thiazolo[4,5-d]azepin-2-amine], less than 100 nM.
As to `Cc1cc(CN2CCc3sc(Nc4ncc(F)cn4)nc3-c3c[nH]nc32)no1` [Compound 1-22, N-(5-Fluoropyrimidin-2-yl)-6-((5-methylisoxazol-3-yl)methyl)-4,5,6,8-tetrahydropyrazolo[3,4-b]thiazolo[4,5-d]azepin-2-amine], the EC50 was less than 100 nM.
Then `Fc1cnc(Nc2nc3c(s2)CCN(Cc2ccn[nH]2)c2n[nH]cc2-3)nc1` [Compound 1-56, 6-((1H-Pyrazol-5-yl)methyl)-N-(5-fluoropyrimidin-2-yl)-4,5,6,8-tetrahydropyrazolo[3,4-b]thiazolo[4,5-d]azepin-2-amine], with 100 to 1000 nM; and `COCCCN1CCc2sc(Nc3ncc(F)cn3)nc2-c2c[nH]nc21` [Compound 1-33, N-(5-Fluoropyrimidin-2-yl)-6-(3-methoxypropyl)-4,5,6,8-tetrahydropyrazolo[3,4-b]thiazolo[4,5-d]azepin-2-amine], with less than 100 nM; and `Fc1cnc(Nc2nc3c(s2)CCN(Cc2ccc(Cl)cc2)c2[nH]ncc2-3)nc1` [Compound 1-58, 6-(4-Chlorobenzyl)-N-(5-fluoropyrimidin-2-yl)-4,5,6,7-tetrahydropyrazolo[3,4-b]thiazolo[4,5-d]azepin-2-amine], with 100 to 1000 nM.
Then `COCCN1CCc2sc(Nc3cccc(C)n3)nc2-c2c[nH]nc21` [Compound 1-13, 6-(2-Methoxyethyl)-N-(6-methylpyridin-2-yl)-4,5,6,8-tetrahydropyrazolo[3,4-b]thiazolo[4,5-d]azepin-2-amine], with less than 100 nM; and `Fc1cnc(Nc2nc3c(s2)CCN(CC2CCCO2)c2[nH]ncc2-3)nc1` (centres unmarked) [Compound 1-48, N-(5-Fluoropyrimidin-2-yl)-6-((tetrahydrofuran-2-yl)methyl)-4,5,6,7-tetrahydropyrazolo[3,4-b]thiazolo[4,5-d]azepin-2-amine], with less than 100 nM.
Then `Fc1cnc(Nc2nc3c(s2)CCN(CCC(F)(F)F)c2n[nH]cc2-3)nc1` [Compound 1-29, N-(5-Fluoropyrimidin-2-yl)-6-(3,3,3-trifluoropropyl)-4,5,6,8-tetrahydropyrazolo[3,4-b]thiazolo[4,5-d]azepin-2-amine], with 100 to 1000 nM; and `Fc1cnc(Nc2nc3c(s2)CCN(Cc2ncccn2)c2[nH]ncc2-3)nc1` [Compound 1-49, N-(5-Fluoropyrimidin-2-yl)-6-(pyrimidin-2-ylmethyl)-4,5,6,7-tetrahydropyrazolo[3,4-b]thiazolo[4,5-d]azepin-2-amine], with less than 100 nM.
Regarding `Fc1cnc(Nc2nc3c(s2)CCN(CC(F)(F)F)c2[nH]ncc2-3)nc1` [Compound 1-30, N-(5-Fluoropyrimidin-2-yl)-6-(2,2,2-trifluoroethyl)-4,5,6,7-tetrahydropyrazolo[3,4-b]thiazolo[4,5-d]azepin-2-amine], the EC50 fell in the range of 100 to 1000 nM.
The result for `Fc1cnc(Nc2nc3c(s2)CCN(Cc2cccc(Cl)c2)c2[nH]ncc2-3)nc1` [Compound 1-67, 6-(3-Chlorobenzyl)-N-(5-fluoropyrimidin-2-yl)-4,5,6,7-tetrahydropyrazolo[3,4-b]thiazolo[4,5-d]azepin-2-amine] reads 100 to 1000 nM; that for `COCCN1CCc2sc(Nc3ncc(O)cn3)nc2-c2cn[nH]c21` [Compound 1-50, 2-(6-(2-Methoxyethyl)-4,5,6,7-tetrahydropyrazolo[3,4-b]thiazolo[4,5-d]azepin-2-ylamino)pyrimidin-5-ol], less than 100 nM; that for `Fc1cnc(Nc2nc3c(s2)CCN(Cc2ccccc2)c2[nH]ncc2-3)nc1` [Compound 1-45, 6-Benzyl-N-(5-fluoropyrimidin-2-yl)-4,5,6,7-tetrahydropyrazolo[3,4-b]thiazolo[4,5-d]azepin-2-amine], less than 100 nM.
Then `Fc1cnc(Nc2nc3c(s2)CCN(Cc2ccc(C(F)(F)F)cc2)c2[nH]ncc2-3)nc1` [Compound 1-69, N-(5-Fluoropyrimidin-2-yl)-6-(4-(trifluoromethyl)benzyl)-4,5,6,7-tetrahydropyrazolo[3,4-b]thiazolo[4,5-d]azepin-2-amine], with 100 to 1000 nM.
Turning to `COCCN1CCc2sc(Nc3cccc(CF)n3)nc2-c2cn[nH]c21` [Compound 1-83, N-(6-(Fluoromethyl)pyridin-2-yl)-6-(2-methoxyethyl)-4,5,6,7-tetrahydropyrazolo[3,4-b]thiazolo[4,5-d]azepin-2-amine], the EC50 lay in the range of 100 to 1000 nM.
As to `Fc1cnc(Nc2nc3c(s2)CCN(C2CCOC2)c2n[nH]cc2-3)nc1` (centres unmarked) [Compound 1-31, N-(5-Fluoropyrimidin-2-yl)-6-(tetrahydrofuran-3-yl)-4,5,6,8-tetrahydropyrazolo[3,4-b]thiazolo[4,5-d]azepin-2-amine], the EC50 was less than 100 nM.
Consider `Cc1ccnc(CN2CCc3nc(Nc4ncc(F)cn4)sc3-c3cn[nH]c32)c1` [Compound 1-63], for which the EC50 is less than 100 nM.
Then `COCCN1CCc2sc(Nc3nc(C)ccc3F)nc2-c2cn[nH]c21` [Compound 1-66, N-(3-Fluoro-6-methylpyridin-2-yl)-6-(2-methoxyethyl)-4,5,6,7-tetrahydropyrazolo[3,4-b]thiazolo[4,5-d]azepin-2-amine], with 100 to 1000 nM.
With `Fc1cnc(Nc2nc3c(s2)CCN(CCc2ccccn2)c2[nH]ncc2-3)nc1` [Compound 1-71, N-(5-Fluoropyrimidin-2-yl)-6-(2-(pyridin-2-yl)ethyl)-4,5,6,7-tetrahydropyrazolo[3,4-b]thiazolo[4,5-d]azepin-2-amine], the EC50 was 1000 to 10000 nM.
The result for `Fc1cnc(Nc2nc3c(s2)CCN(Cc2ccc(C(F)(F)F)cn2)c2[nH]ncc2-3)nc1` [Compound 1-62, N-(5-Fluoropyrimidin-2-yl)-6-((5-(trifluoromethyl)pyridin-2-yl)methyl)-4,5,6,7-tetrahydropyrazolo[3,4-b]thiazolo[4,5-d]azepin-2-amine] reads less than 100 nM; that for `COCCN1CCc2sc(Nc3cccc(N)n3)nc2-c2c[nH]nc21` [Compound 1-21, N^2-(6-(2-Methoxyethyl)-4,5,6,8-tetrahydropyrazolo[3,4-b]thiazolo[4,5-d]azepin-2-yl) pyridine-2,6-diamine], less than 100 nM.
